The subject of the test is LS411N human colorectal cancer cells. In words: LS411N colorectal cancer xenograft: tumor growth inhibition, tumor growth delay and tumor regressions. The following applies: for TGI: Day 18, vs vehicle; for Median Time to 500 mm3: study cut-off Day 67; for Tumor regressions at day 67: animals with regression of n=10 mice/group; for T/C: median time to 500 mm3, treated vs vehicle; for Tumor growth delay: time to 500 mm3 vs vehicle. The test is classed as in vivo, Balb/c-nude female mice. As to the method:
LS411N human colorectal cancer cells were maintained in RPMI-1640 cell culture medium supplemented with 10% fetal bovine serum at 37°C in an atmosphere of 5% CO2 in air. The cells in exponential growth phase were harvested and counted. Balb/c-nude female mice were inoculated subcutaneously at the right flank with 5x10^6 LS411N cells in 0.2 ml of PBS mixed with Matrigel (1:1) for tumor development. Six days after cell injection, animals having a tumor volume of about 200 mm^3 were randomized and allocated to 9 experimental groups (n=10 mice/group) for treatment with vehicle, compound of formula (II) at 13 mg/kg, compound of formula (II) at 20 mg/kg, tisotumab vedotin at 1 mg/kg, tisotumab vedotin at 4 mg/kg and the combinations of the two doses of compound of formula (II) with the two doses of tisotumab vedotin. Compound of formula (II) was administered intravenously every 4 days for 7 times (Days 0, 4, 8, 12, 16, 20 and 24) and tisotumab vedotin was administered intravenously once a week for two weeks (Days 0 and 7). On Day 0, tisotumab vedotin was given first and, after 1h, compound of formula (II) was administered).
Effect of treatment on tumor growth and body weight was evaluated twice times per week. Tumors were measured in two dimensions using a caliper, and the tumor volume was expressed in mm^3 using the formula: V=(L x W2)/2, where V is tumor volume, L is tumor length (the longest tumor dimension) and W is tumor width (the longest tumor dimension perpendicular to L).
From Day 18 onwards, some animals in the vehicle treated groups had to be euthanized due to tumors reaching the ethical endpoint (3000 mm^3), therefore tumor growth inhibition (TGI) for each treatment group was calculated on Day 18, when all the animals in the vehicle group were available for the calculation of the mean tumor volume.
Figure 2 and Figure 3a and Figure 3b show the tumor growth curves of individual animals in each group and the Kaplan-Meier curves representing the time needed for tumors to reach/exceed 500 mm^3, respectively. Study cut-off Day 67.
To better evaluate the combination benefit, tumor growth delay was evaluated as the time needed for tumors to reach/exceed a defined tumor volume (Table 2). The median time for tumors to reach 500 mm^3 was 7 days, 11 days, 14 days, 28 days and 37 days for vehicle, Compound of formula (II) 13 mg/kg, Compound of formula (II) 20 mg/kg, tisotumab vedotin 1 mg/kg and tisotumab vedotin 4 mg/kg single agent groups, respectively. All the combinations induced a strong tumor growth delay when compared to vehicle and single agent treated arms. The median time for tumors to reach 500 mm^3 in the combination at the lower doses of both agents, Compound of formula (II) 13 mg + tisotumab vedotin 1 mg/kg, was 65 days. For the other combination groups the median time for tumors to reach 500 mm^3 had not yet been reached at Day 67. The effect of the combination on tumor growth delay was more than additive for all the combination groups.

[1] abbreviates: tisotumab vedotin 1 mg/kg iv Days 0 and 7.
Where [2] appears, read: tisotumab vedotin 4 mg/kg iv Days 0 and 7.
Setting [3] is: Compound of formula (II) 13 mg/kg iv every 4 days x7.
The mark [4] stands for this setting: Compound of formula (II) 13 mg/kg.
Setting [5] is: Compound of formula (II) 20 mg/kg iv every 4 days x7.
The mark [6] stands for this setting: Compound of formula (II) 20 mg/kg.

As for Tisotumab vedotin, under setting [1], the “control of tumor growth (individual tumor growth curves)” value was “controlled tumor growth initially, but between Days 14 and 20 all tumors started growing”; the “Mean Tumor Volume (mm^3) Day 18” value came out at 325 mm^3; the TGI – broadly, the reduction of tumour growth relative to the control group – worked out at 76.8%; the “Median Time to 500 mm3” value came out at 28 days. Where the note is “tisotumab vedotin 1 mg/kg”, the “Tumor regressions at day 67” value is reported as 0/10; the T/C (in general, the result in the treated group divided by that in the control group, in per cent) stood at 400%; the “Tumor growth delay” value came to 21 days. Further, under setting [2], the “control of tumor growth (individual tumor growth curves)” value was “controlled tumor growth and induced tumor regressions initially, but after Day 20 tumors started to regrow as well”; the “Mean Tumor Volume (mm^3) Day 18” value is reported as 147 mm^3; the TGI worked out at 89.5%; the “Median Time to 500 mm3” value came out at 37 days. In addition, where the note is “tisotumab vedotin 4 mg/kg”, the “Tumor regressions at day 67” value is 0/10, the T/C is given as 529% and the “Tumor growth delay” value came to 30 days.

On to `CCc1cccc(CC)c1NC(=O)c1nn(C)c2c1CCc1cnc(Nc3ccc(N4CCC(N(C)C)CC4)cc3OC)nc1-2` [Compound of formula (II), N-(2,6-diethylphenyl)-8-({4-[4-(dimethylamino)piperidin-1-yl]-2-methoxyphenyl}-amino)-1-methyl-4,5-dihydro-1H-pyrazolo[4,3-h]quinazoline-3-carboxamide], for which, under setting [3], the “Mean Tumor Volume (mm^3) Day 18” value is 751 mm^3 and the “Median Time to 500 mm3” value is 11 days. In addition, the TGI (Compound of formula (II) 13 mg/kg iv every 4 days x7, 13 mg/kg) amounted to 46.4%. Under setting [4], the “Tumor regressions at day 67” value was 0/10, the T/C is listed as 157% and the “Tumor growth delay” value was 4 days. Under setting [5], the “Mean Tumor Volume (mm^3) Day 18” value is listed as 655 mm^3 and the “Median Time to 500 mm3” value came out at 14 days. Besides, for the setting “Compound of formula (II) 20 mg/kg iv every 4 days x7, 20 mg/kg”, the TGI was 52.6%. In addition, under setting [6], the “Tumor regressions at day 67” value was 0/10, the T/C came to 200% and the “Tumor growth delay” value was 7 days.

The values are drawn from patent publication EP4506015A1, “COMBINATION OF A MPS1 INHIBITOR AND AN ANTIBODY DRUG CONJUGATE” (Nerviano Medical Sciences S.r.l., priority 2023, dated 2025).
